The test system of test [1] is heparan sulfate proteoglycans (HSPGs) side chains. Put plainly: Western blot of heparan sulfate GAGs (10E4) produced by astrocytes. The test is classed as cell-based, mouse. An excerpt:
Compounds that were able to reduce chondroitin GAGs were also investigated for their ability to reduce heparan sulfate GAGs. […] D. & de Vries, H. E. Extensive extracellular matrix depositions in active multiple sclerosis lesions. Neurobiology of disease 24, 484-491 (2006); van Horssen, J., Bö, L., Vos, C. M., Virtanen, I. & de Vries, H. E. Basement membrane proteins in multiple sclerosis-associated inflammatory cuffs: potential role in influx and transport of leukocytes. Journal of neuropathology and experimental neurology 64, 722-729 (2005)] and have detrimental pro-inflammatory capabilities [Parish, C. R. The role of heparan sulphate in inflammation. Nature reviews. Immunology 6, 633-643 (2006)].
Astrocytes were plated in uncoated 6-well plates (3 replicate wells per treatment) at 1×10^6 cells/well in mixed glial media, and incubated at 5% CO2 and 37° C. Astrocytes were treated with compounds at 50 μM in AIM-V media for 48 hours. Media was pooled from 3 replicate wells in 15 ml 100K cutoff centricon tubes (EMD Millipore, #UFC905008), which were spun on an ultracentrifuge at 5000× g for 2 cycles of 10 minutes each. When harvested, the cell lysate was kept on ice for 5 minutes with 250 μL of RIPA buffer (ThermoFisher Scientific #89900) containing proteinase inhibitor, and then collected and centrifuged at 14000 g for 5 minutes. Total protein was quantified using a Bradford assay. Conditioned media that were to be probed for chondroitin 4-sulfate GAGs (Millipore, #MAB2030) were first digested with 0.2 U/ml chondroitinase ABC for overnight at 37° C. to remove chondroitin sulfate sidechains. Blots that were to be probed with CSA (2H6, Cosmo) or CS56 (Abcam #ab11570) were not exposed to chondroitinase ABC. Samples were heat denatured with NuPAGE® LDS Sample buffer at 70° C. for 10 minutes and then loaded into 3-8% tris-acetate pre-cast gels (ThermoFisher, #EA0478BOX). The gels were electrophoresed at a constant 150 V for 90 minutes and transferred to a […] polyvinylidene fluoride membrane at a constant 250 mA for 60 minutes. The membranes were blocked for one hour with 10% skim milk in Tris-buffered saline (TBS; 0.9% NaCl, 10 mM Tris-HCl, pH 7.5) containing 0.5% Tween 20 (TBS-T). Primary antibodies were added in 3% skim milk and incubated overnight at 4° C. The membranes were washed 5×5 minutes with TBS-T. HRP-conjugated secondary antibodies were incubated for 120 minutes. The membranes were washed again for 5×5 minutes with TBS-T. Membranes were developed using an ECL chemiluminescence kit (GE Lifesciences) and manually exposed to developing and fixative solutions. Band density was quantified using Gel Analysis on ImageJ. A rectangular shape measured the density of bands for each lane. […]
On the technique in general: In western blotting, separated proteins are transferred to a membrane and probed.

Test [2] deals with EAE mice. Put plainly: Experimental autoimmune encephalomyelitis (EAE) clinical score. The test is classed as in vivo, mouse.
The next test relates to TNFα. Put plainly: TNFα ELISA of LPS-stimulated bone marrow-derived macrophages. The following applies: BMDMs, 50 μM, LPS 100 ng/ml, 24 hours. The test is classed as cell-based, mouse. How it is done: Multiple Sclerosis: Mechanisms and Immunotherapy. Neuron 97, 742-768 (2018)]. It was tested whether the sugar analogs could affect the activity of macrophages, using bone marrow-derived macrophages (BMDMs) stimulated with lipopolysaccharide (LPS, 100 ng/ml). The sugar analogs were added at 50 μM prior to LPS, and the conditioned medium was collected after 24 hours and assayed for levels of the secreted cytokine TNFα. […] Testing Toxicity of Sugar Analogs
Femurs were carefully removed from euthanized female C57BI/6 mice, and marrow was flushed into a culture plate with cold complete bone marrow growth medium (DMEM, 10% fetal bovine serum, and the supplements 1% penicillin/streptomycin, 1% glutamine, 1% non-essential amino acids, and 10% supernatant from L929 cell-line enriched in macrophage-colony stimulating factor). Cells were spun at 1100 rpm for 10 minutes, resuspended in fresh growth medium and plated at 10×10^6 cells/ml in a 10 cm culture dish. Cells were grown in DMEM with supplements and L929 supernatant for 5 days, then half the medium was replaced with fresh growth medium. On day 7 growth medium was replaced with DMEM with 10% FBS and supplements. Cells were used on day 8, and experiments were conducted in DMEM with 1% FBS and supplements unless otherwise specified.
BMDM were plated at 25,000 cells in 96-well plates in DMEM+L929 media. After 24 hours media was changed to DMEM+1% FBS. One hour later, cells were treated with […] compounds or PBS. After 1 hour LPS (final concentration 100 ng/ml) was added. Following 24 hours, conditioned media was harvested for TNFα ELISA (Thermo Scientific), which was performed according to manufacturer's instructions.
Background: In an ELISA, binding on a coated surface is turned into a signal by an enzyme label.

In test [3] the test system is splenocytes. Put plainly: Splenocyte thymidine proliferation assay (anti-CD3/anti-CD28). The test is classed as cell-based, mouse. The following applies: increasing concentrations, 48 hours.
Test [4] deals with splenocytes. Put plainly: Propidium iodide DNA cell cycle flow cytometry of splenocytes. The following applies: activated splenocytes. The test is classed as cell-based, mouse. An excerpt: Cell-cycle flow cytometry with propidium iodide was used to corroborate the above results, and ensure the reduction in proliferation was not due to cell death. […] To further investigate whether the reduction of proliferation was due to cell death, Annexin V and propidium iodide staining were used to differentiate necrotic cells (propidium iodide+), apoptotic cells (annexin V+), dead cells (propidium iodide+ and annexin V+), and live cells (propidium iodide-annexin V−).
Cell cycle staining with propidium iodide (PI) and analysis by flow cytometry gives percentage of cells in apoptosis, G1, G2, and synthesis, and apoptosis. Following a membrane permeabilization, PI chelates to DNA and level of staining specifies the stage of the cell cycle (e.g., G2 phase will have twice the DNA and thus twice the PI signal as G1 phase, apoptotic cells contain less DNA than healthy cells and are identified by low PI staining). 1×10^6 splenocytes were used per sample, with four replicates per condition. Cells were collected into a tube with PBS and centrifuged (200 r.p.m. for 5 minutes). […] Suspension was transferred to a FACs tube and analyzed. Annexin V/Propidium iodide staining was detected using the Annexin V FITC apoptosis detection kit (BD Biosciences, #556547), which was performed according to manufacturer's instructions.
For orientation: In flow cytometry, cells or beads pass a laser one at a time.

For test [5], the system named is mice demyelinated with lysolecithin. The following applies: previously described (Keough et al. 2016); cited from earlier work.
In test [6] the test system is EAE mice. Particulars: previously shown (Keough et al. 2016), 50 mgkg−1; cited from earlier work.
[7] abbreviates: 50 mg/kg intraperitoneal daily, day 7 to day 15.

The structures appear in SMILES notation. “Also recorded” adds a separate entry of the source.

In the case of `CCCC(=O)OC1OC(COC(C)=O)[C@@H](F)[C@H](OC(C)=O)C1NC(C)=O` (mixture of isomers) [Compound 8, 2-Acetamido-3,6-di-O-acetyl-1-O-butanoyl-2,4-dideoxy-4-fluoro-α/β-D-glucopyranose], in test [1], the “HSPG side chains (intact heparan sulfate GAGs, 10E4)” value (“HSPG side chains” below) is “slight reduction in HSPG side chains”.

Regarding `CC(=O)NC1C(O)OC(COC(C)=O)[C@@H](F)[C@@H]1OC(C)=O` (mixture of isomers) [Compound 10], the EAE clinical score entry with EAE mice [2] (setting [7]) is reported as “did not reduce EAE clinical score; also recorded: no significant improvement in EAE clinical score”. For the same compound, in the test on TNFα, the “TNFα production by LPS-stimulated macrophages” value (shortened to “TNFα production”) is on record as “enhanced TNFα levels”.

As to `CC(=O)NC1C(OC(C)=O)OC(COC(C)=O)C(F)(F)[C@@H]1OC(C)=O` (mixture of isomers) [Compound 16, 2-Acetamido-1,3,6-tri-O-acetyl-2,4-dideoxy-4,4-difluoro-α/β-D-xylo-hexopyranose], the “HSPG side chains” value in test [1] is reported as “slight reduction in HSPG side chains”. The “dose-response to reduce proliferation in splenocytes” value in the test with splenocytes [3] is on record as “more effective than Ac-4-F-GlcNAc 3 at lower concentrations”. For the same compound, in the test with splenocytes [4], the “percentage of cells in cell cycle phases” value was “reduced the percentage of cells in the S (DNA synthesis)-phase of the cell cycle”. For the same compound, the EAE clinical score entry is “significantly reduced EAE clinical severity; also recorded: did not significantly improve disability until nine days after treatment” with EAE mice [2] (25 mg/kg daily from peak clinical severity (day 15)); “significantly lower EAE clinical scores than the control group” in the test on EAE mice [2] (25 mg/kg intraperitoneal daily, day 7 to day 15 (pre-onset)); “pronounced reduction in EAE clinical severity beyond that seen for the mono-fluorinated Ac-4-F-GlcNAc” in the test on EAE mice [2] (setting [7]). Also, in the test with EAE mice [2] (25 mg/kg intraperitoneal daily, day 7 to day 15), the “sum of scores (burden of disease)” value is listed as “significantly reduced”. The “TNFα production” value with TNFα is “did not alter cytokine level of activated macrophages”.

As to `CC(=O)NC1C(OC(C)=O)OC(COC(C)=O)[C@@H](F)C1OC(C)=O` (stereo partly shown) [Compound 3, reference compound], the remyelination result in test [5] is recorded as “promoted remyelination following lysolecithin demyelination of the mouse spinal cord”. The “HSPG side chains” value in test [1] is given as “slight reduction in HSPG side chains”. Besides, the EAE clinical disability result in the test with EAE mice [6] is reported as “attenuated the severity of mice afflicted with EAE; also recorded: reduced the ensuing EAE clinical disability”. Also, the “TNFα production” value with TNFα was “did not alter cytokine level of activated macrophages”.

Turning to `CCCC(=O)OC[C@H]1OC(O)[C@H](NC(C)=O)[C@@H](OC(=O)CCC)[C@@H]1F` (stereo partly drawn) [Compound 12, 2-Acetamido-3,6-di-O-butanoyl-2,4-dideoxy-4-fluoro-α/β-3-D-glucopyranose], the “HSPG side chains” value in test [1] was “slight reduction in HSPG side chains”.

The values are drawn from patent US12600740B2, “Fluorinated N-acetyl glucosamine analogs and xylose derivatives” (UTI Limited Partnership, priority 2018, dated 2026).
